Results taken from patent publication US20060116399A1, “Diarylmethylidene piperidine derivatives, preparations thereof and uses thereof” (AstraZeneca AB, priority 2003, published 2006).
Like-named read-outs stand apart in the source and are kept apart here.

Columns and labels:
[1] = target: T1, cloned human δ receptor (Homo sapiens, UniProt P41143); assay: δ receptor binding assay, displacement of 125I-Deltorphin II
T1 construct: expressed in transfected cells

[2] = target: T2, cloned human μ receptor (Homo sapiens, UniProt P35372); assay: μ receptor binding assay, displacement of 125I-FK33824
T2 construct: expressed in transfected cells; host or cells: human HEK-293S cells, neomycin resistance

[3] = target: T3, human δ receptor (Homo sapiens, UniProt P41143); assay: GTP[γ]35S binding functional assay, HEK-293S membranes; format: biochemical
T3 construct: expressed in transfected cells
Method: Human 293S cells expressing cloned human κ, δ and μ receptors and neomycin resistance are grown in suspension at 37° C. and 5% CO2 in shaker flasks containing calcium-free DMEM10% FBS, 5% BCS, 0.1% Pluronic F-68, and 600 μg/ml geneticin.
Cells are pelleted and resuspended in lysis buffer (50 mM Tris, pH 7.0, 2.5 mM EDTA, with PMSF added just prior to use to 0.1 mM from a 0.1 M stock in ethanol), incubated on ice for 15 min, then homogenized with a polytron for 30 sec. The suspension is spun at 1000 g (max) for 10 min at 4° C. The supernatant is saved on ice and the pellets resuspended and spun as before. The supernatants from both spins are combined and spun at 46,000 g (max) for 30 min. The pellets are resuspended in cold Tris buffer (50 mM Tris/Cl, pH 7.0) and spun again. The final pellets are resuspended in membrane buffer (50 mM Tris, 0.32 M sucrose, pH 7.0). Aliquots (1 ml) in polypropylene tubes are frozen in dry ice/ethanol and stored at −70° C. until use. The protein concentrations are determined by a modified Lowry assay with sodium dodecyl sulfate.
The agonist activity of the compounds is measured by determining the degree to which the compounds receptor complex activates the binding of GTP to G-proteins to which the receptors are coupled. In the GTP binding assay, GTP[γ]^35S is combined with test compounds and membranes from HEK-293S cells expressing the cloned human opioid receptors or from homogenised rat or mouse brain. Agonists stimulate GTP[γ]^35S binding in these membranes. The EC50 and Emax values of compounds are determined from dose-response curves. Right shifts of the dose response curve by the delta antagonist naltrindole are performed to verify that agonist activity is mediated through delta receptors. For human δ receptor functional assays, EC50 (low) is measured when the human δ receptors used in the assay were expressed at lower levels in comparison with those used in determining EC50 (high). The Emax values were determined in relation to the standard δ agonist SNC80, i.e., higher than 100% is a compound that have better efficacy than SNC80.
Rat brain membranes are thawed at 37° C., passed 3 times through a 25-gauge blunt-end needle and diluted in Mhe GTPγS binding (50 mM Hepes, 20 mM NaOH, 100 mM NaCl, 1 mM EDTA, 5 mM MgCl2, pH 7.4, Add fresh: 1 mM DTT, 0.1% BSA). 120 μM GDP final is added membranes dilutions. The EC50 and Emax of compounds are evaluated from 10-point dose-response curves done in 300 μl with the appropriate amount of membrane protein (20 μg/well) and 100000-130000 dpm of GTPγ^5S per well (0.11-0.14 nM). The basal and maximal stimulated binding are determined in absence and presence of 3 μM SNC-80. The assay performed on HEK 293s cells stably expressing cloned Delta receptors is done in a slightly different buffer (50 mM Hepes, 20 mM NaOH, 200 mM NaCl, 1 mM EDTA, 5 mM MgCl2, pH 7.4, Add fresh: 0.5% BSA, no DTT) and with a 3 μM final conc. of GDP.

[4] = target: cloned human κ receptor (Homo sapiens, UniProt P41145); assay: κ receptor binding assay, displacement of 125I-DPDYN; settings: Table 1
[5] = Table 2, lower receptor expression, relative to SNC80, range over several compounds, read-out: Human δ % Emax (low)

T1 sequence (P41143 whole entry): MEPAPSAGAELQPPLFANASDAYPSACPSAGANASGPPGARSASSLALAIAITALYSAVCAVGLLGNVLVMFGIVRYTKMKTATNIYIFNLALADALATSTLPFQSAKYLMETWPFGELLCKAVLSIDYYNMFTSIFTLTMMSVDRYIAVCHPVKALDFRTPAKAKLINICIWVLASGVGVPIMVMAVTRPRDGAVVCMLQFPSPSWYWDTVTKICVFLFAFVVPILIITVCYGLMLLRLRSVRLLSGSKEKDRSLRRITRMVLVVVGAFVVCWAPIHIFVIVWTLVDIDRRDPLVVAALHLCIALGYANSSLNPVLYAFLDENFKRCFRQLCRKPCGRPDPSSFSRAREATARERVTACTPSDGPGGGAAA
T3 sequence (P41143 whole entry): as above
T2 sequence (P35372 whole entry): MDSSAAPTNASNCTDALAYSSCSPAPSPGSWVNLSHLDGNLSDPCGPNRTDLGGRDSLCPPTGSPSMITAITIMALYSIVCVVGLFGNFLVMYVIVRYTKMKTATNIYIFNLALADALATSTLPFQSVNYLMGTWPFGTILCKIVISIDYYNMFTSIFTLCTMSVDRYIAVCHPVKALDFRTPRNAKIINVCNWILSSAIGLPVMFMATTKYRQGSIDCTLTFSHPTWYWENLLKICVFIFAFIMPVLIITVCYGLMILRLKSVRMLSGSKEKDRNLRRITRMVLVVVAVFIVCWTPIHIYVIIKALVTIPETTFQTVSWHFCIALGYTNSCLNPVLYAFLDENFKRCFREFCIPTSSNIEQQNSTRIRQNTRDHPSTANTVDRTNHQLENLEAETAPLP
cloned human κ receptor, sequence (P41145 whole entry): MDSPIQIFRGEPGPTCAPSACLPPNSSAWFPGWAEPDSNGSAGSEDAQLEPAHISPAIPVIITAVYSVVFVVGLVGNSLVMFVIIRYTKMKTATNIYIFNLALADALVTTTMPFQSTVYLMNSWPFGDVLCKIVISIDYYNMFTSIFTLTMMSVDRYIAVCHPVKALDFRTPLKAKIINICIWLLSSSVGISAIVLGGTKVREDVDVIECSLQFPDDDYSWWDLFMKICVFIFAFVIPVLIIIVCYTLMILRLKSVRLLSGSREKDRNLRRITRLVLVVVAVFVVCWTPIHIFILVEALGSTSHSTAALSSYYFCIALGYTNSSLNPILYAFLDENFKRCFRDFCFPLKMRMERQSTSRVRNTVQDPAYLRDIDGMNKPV

Row | Compound | IC50 [1] [nM] | IC50 [2] [nM] | EC50 [3] [nM] | Emax [3, 5] [%] | IC50 [4] [nM] | Emax ([3]; Table 1, higher receptor expression, relative to standard δ agonist SNC80, read-out: Human δ % EMax (high)) [%]
1 | CCN(CC)C(=O)c1ccc(C(=C2CCN(Cc3cccs3)CC2)c2cccc(NC(=O)OC)c2)cc1 [Compound 1, [3-[[4-[(diethylamino)carbonyl]phenyl][1-(2-thienylmethyl)-4-piperidinylidene]methyl]phenyl]-carbamic acid, methyl ester] | 0.3 to 0.35 | 62.8 to 498 | 1.8 to 5.97 | 93.7 to 128 |  | 
2 | CCN(CC)C(=O)c1ccc(C(=C2CCN(Cc3ccco3)CC2)c2cccc(NC(=O)OC)c2)cc1 [Compound 2, [3-[[4-[(diethylamino)carbonyl]phenyl][1-(2-furanylmethyl)-4-piperidinylidene]methyl]phenyl]-carbamic acid, methyl ester] | 0.3 to 0.35 | 62.8 to 498 | 1.8 to 5.97 | 93.7 to 128 |  | 
3 | CCN(CC)C(=O)c1ccc(C(=C2CCN(Cc3ccccc3)CC2)c2cccc(NC(=O)OC)c2)cc1 [Compound 3, [3-[[4-[(diethylamino)carbonyl]phenyl][1-(phenylmethyl)-4-piperidinylidene]methyl]phenyl]-carbamic acid, methyl ester] | 0.48 | 28.7 | 0.62 |  | 188 | 91.7
4 | CCN(CC)C(=O)c1ccc(C(=C2CCN(Cc3cncs3)CC2)c2cccc(NC(=O)OC)c2)cc1 [Compound 5, methyl 3-{{4-[(diethylamino)carbonyl]phenyl}[1-(1,3-thiazol-5-ylmethyl)piperidin-4-ylidene]methyl}phenylcarbamate] | 0.3 to 0.35 | 62.8 to 498 | 1.8 to 5.97 | 93.7 to 128 |  | 
